{
  "source": "patent US6930103B2",
  "about": "“Use of vasopeptidase inhibitors in the treatment of metabolic diseases, nephropathy and advanced glycation end-product associated diseases” (Aventis Pharma Deutschland GmbH, priority 2002, dated 2005)",
  "key": {"Goto-Kakizaki (GK) rats": {"tested_on": "Goto-Kakizaki (GK) rats", "test": "Albumin and creatinine excretion in Goto-Kakizaki (GK) rats", "assay_type": "in vivo, rat", "conditions": "start at age 6 months, mean", "experimental": "The albumin and creatinine excretion in Goto-Kakizaki (GK) rats was determined. GK rats are a model for Type II diabetes. One group was left untreated, one was treated with the ACE/NEP inhibitor of formula (II-B) and one group was treated with the ACE inhibitor ramipril. [table]"}, "fat ZDF rats": {"tested_on": "fat ZDF rats", "test": "Histological examination of kidneys of ZDF rats after 6 months treatment", "assay_type": "in vivo, rat", "design": "Armanni-Ebstein cells MEAN SEVERITY / Glomerulosclerosis MEAN SEVERITY / Atrophy: renal tubule MEAN SEVERITY / Casts: renal tubule MEAN SEVERITY: scale not given here", "experimental": "(§1) The protein and creatinine excretion in the urine of male Zucker Diabetic Fatty (ZDF) Rats (ZDF Gmi fa/fa) and heterozygous control animals (ZDF Gmi −/+) of 10, 17, 27 and 37 weeks age was determined. In further groups, diabetic rats were chronically given either ramipril (1 mg/kg/day, in drinking water) or a compound of formula (II-B) (30 mg/kg/day, in food) over a period from 10 to 37 weeks. The animals were sacrificied after 37 weeks, and their kidneys examined histologically.\nIn the attached tables a summary of the findings on the kidneys after a treatment period of 6 months is listed."}, "[1]": {"tested_on": "isolated aortic rings of rabbits", "test": "Relaxation of aortic rings by acetylcholine in rabbits fed an atherogenic diet", "assay_type": "in vivo, White New Zealand rabbits", "conditions": "for Relaxation of aortic rings by acetylcholine: varied diet rabbits, mean ± SEM", "description": "It was shown in the atherogenic rabbit model (White New Zealand rabbits were fed with 0.25% cholesterol plus 3% coconut oil) that even a short 6 week period of an atherogenic diet leads to sustained endothelial dysfunction, even though the animals received a normal diet for 3 months thereafter. […] The endothelium-dependent relaxation of isolated aortic rings of rabbits as well as the release of nitric oxide and superoxide from endothelial cells serve as measures of endothelial dysfunction. […] (II-B) [table]"}, "ZDF rats": {"tested_on": "ZDF rats", "test": "Dot blot analysis of kidney AGE subtypes (CML, CEL, pentosidine) in ZDF rats", "assay_type": "in vivo, rat", "experimental": "Kidney AGE values were determined by Dot blot analysis (Stracke et al., Exp. Clin. Endocrinol. Diabets 2002, 109, 330-336) and Reversed-phase high performance liquid chromatography or RP-HPLC (Drusch et al., Food Chem. 1999, 65, 547-553).\nKidney-samples for the dot blot analysis were obtained from 17-week-old male ZDF rats, control rats and ZDF rats treated for seven weeks with 30 mg/kg/d of compound (II-B) and 35 mg/kg/d of compound (III-B). Three animals of each group were sacrificed, the kidneys removed and immediately frozen in liquid nitrogen. Grinding of the kidneys was performed in liquid nitrogen using a freezer mill (Freezer 6750, C3 Analysetechnik GmbH). Kidney sample (10 mg) was dissolved in 1 ml phosphate buffered saline (PBS containing 0.5 g/l Tween 20, 0.5 mM PMSF, […]). The solution was treated two times for five seconds with an ultrasonic cell disrupter (45% power, Bandolin Sonoplus HD 2070), centrifuged for 20 minutes at 4000 rpm and the supernatant was used for dot blot analysis. The nitrocellulose membrane was placed in the dot blot apparatus and washed twice with Tris Buffered Saline (TBS), 100 μl TBS/well. For each sample, 10 μg protein (protein concentration of the samples were determined with the DC Protein Assay, Bio Rad) was diluted in 100 μl TBS and loaded on to the nitrocellulose membrane (Amersham). The membrane was incubated over night in TBS with Tween 20 (TBST; 20 mM Tris, 137 mM NaCl, 0.05% v/v Tween 20) with 5% non-fat dry milk at 4° C. and incubated for 1 hour at room temperature using the following antibody concentration: anti-CML 011 (Biologo) 0.25 μg/ml, anti-CEL (Biologo) 0.25 μg/ml and anti-pentosidine 012 (Biologo) 0.25 μg/ml. After extensive washing in TBST with 5% non-fat dry milk, membranes were exposed to […] anti-mouse IgG antibodies (Dianova) for one hour at room temperature. Membranes were washed again and exposed to the enhanced chemofluorescence detection system (Amersham) according to manufacturer's instructions. Relative fluorescence was determined with the Fluor-Imager 595 (Molecular Dynamics) and quantified using the Image-Quant software. Results were expressed in relative fluorescence (rf) times 10^5 (rf*10^5)."}, "[2]": {"tested_on": "Zucker Diabetic Fatty (ZDF) Rats (ZDF Gmi fa/fa)", "test": "Urinary excretion of albumin and creatinine in ZDF rats treated from 10 to 37 weeks of age", "assay_type": "in vivo, rat", "conditions": "for Urine excretion Albumin / Urine excretion Albumin/Creatinine: ZDF rats, mean", "experimental": "as §1"}, "endothelial cells": {"tested_on": "endothelial cells", "test": "NO and superoxide release from endothelial cells in rabbits fed an atherogenic diet", "assay_type": "in vivo, White New Zealand rabbits", "conditions": "varied diet rabbits; mean ± SEM", "description": "It was shown in the atherogenic rabbit model (White New Zealand rabbits were fed with 0.25% cholesterol plus 3% coconut oil) that even a short 6 week period of an atherogenic diet leads to sustained endothelial dysfunction, even though the animals received a normal diet for 3 months thereafter.\nThe endothelium-dependent relaxation of isolated aortic rings of rabbits as well as the release of nitric oxide and superoxide from endothelial cells serve as measures of endothelial dysfunction.\n• Groups: • Standard: 18 weeks normal diet • Atherogenic: 18 weeks atherogenic diet (3% Coconut oil+0.25% Cholesterol) • Varied diet (Var.): 6 weeks atherogenic diet+12 weeks normal diet • Varied Diet+ramipril: 6 weeks atherogenic diet+12 weeks normal diet+ramipril • Varied diet+compound (II-B): 6 weeks atherogenic diet+12 weeks normal diet+cpd. (II-B)\nNO and O2^− are markers for endothelial function: increased relaxation and increased NO levels are beneficial, while increased O2^− formation inhibits the beneficial effects of NO."}, "[3]": {"conditions": "kidneys, male fat ZDF rats, terminal sacrifice"}, "[4]": {"conditions": "kidneys, male fat ZDF rats, terminal sacrifice, examined: D1 9, D4 8"}, "[5]": {"conditions": "kidneys, male fat ZDF rats, terminal sacrifice, examined: D1 9, D4 8, listed as compound (II-B)"}, "[6]": {"conditions": "17-week-old ZDF rats treated for seven weeks, dot blot"}},
  "data": [
    {"smiles": "CC(=O)S[C@H](C(=O)N[C@H]1Cc2ccccc2[C@H]2CCC[C@@H](C(=O)O)N2C1=O)C(C)C", "note": "[cpd. (II-B)]", "values": [
      {"measurement": "Albumin/Creatinine", "setting": "Goto-Kakizaki (GK) rats; 6 weeks treatment", "value": 17.70, "unit": "mg/mmol"},
      {"measurement": "Albumin/Creatinine", "setting": "Goto-Kakizaki (GK) rats; 12 weeks treatment", "value": 24.28, "unit": "mg/mmol"},
      {"measurement": "Albumin/Creatinine", "setting": "Goto-Kakizaki (GK) rats; Basal", "value": 103.95, "unit": "mg/mmol"},
      {"measurement": "Armanni-Ebstein cells GRADE 2: number of animals", "setting": "fat ZDF rats; [3]", "value": 5},
      {"measurement": "Armanni-Ebstein cells GRADE 3: number of animals", "setting": "fat ZDF rats; [3]", "value": 3},
      {"measurement": "Armanni-Ebstein cells MEAN SEVERITY", "setting": "fat ZDF rats; [3]", "value": 2.4},
      {"measurement": "Atrophy: renal tubule GRADE 1: number of animals", "setting": "fat ZDF rats; [3]", "value": 1},
      {"measurement": "Atrophy: renal tubule GRADE 3: number of animals", "setting": "fat ZDF rats; [3]", "value": 1},
      {"measurement": "Atrophy: renal tubule MEAN SEVERITY", "setting": "fat ZDF rats; [3]", "value": 2.0},
      {"measurement": "Casts: renal tubule GRADE 1: number of animals", "setting": "fat ZDF rats; [3]", "value": 2},
      {"measurement": "Casts: renal tubule GRADE 2: number of animals", "setting": "fat ZDF rats; [3]", "value": 1},
      {"measurement": "Casts: renal tubule MEAN SEVERITY", "setting": "fat ZDF rats; [3]", "value": 1.3},
      {"measurement": "Glomerulosclerosis GRADE 1: number of animals", "setting": "fat ZDF rats; [3]", "value": 1},
      {"measurement": "Glomerulosclerosis GRADE 3: number of animals", "setting": "fat ZDF rats; [3]", "value": 1},
      {"measurement": "Glomerulosclerosis MEAN SEVERITY", "setting": "fat ZDF rats; [3]", "value": 1.0},
      {"measurement": "Armanni-Ebstein cells: number of animals with finding (total affected)", "setting": "fat ZDF rats; [4]", "value": 8},
      {"measurement": "Atrophy: renal tubule: number of animals with finding (total affected)", "setting": "fat ZDF rats; [4]", "value": 2},
      {"measurement": "Casts: renal tubule: number of animals with finding (total affected)", "setting": "fat ZDF rats; [4]", "value": 3},
      {"measurement": "Glomerulosclerosis: number of animals with finding (total affected)", "setting": "fat ZDF rats; [4]", "value": 1},
      {"measurement": "Atrophy: renal tubule: number of animals with finding (total affected)", "setting": "fat ZDF rats; [5]", "value": "low incidences"},
      {"measurement": "Casts: renal tubule: number of animals with finding (total affected)", "setting": "fat ZDF rats; [5]", "value": "low incidences"},
      {"measurement": "Glomerulosclerosis: number of animals with finding (total affected)", "setting": "fat ZDF rats; [5]", "value": "not present"},
      {"measurement": "Dilatation: pelvis GRADE 2: number of animals", "setting": "fat ZDF rats; rat, in vivo", "value": 1},
      {"measurement": "Dilatation: pelvis GRADE 3: number of animals", "setting": "fat ZDF rats; rat, in vivo", "value": 5},
      {"measurement": "Dilatation: pelvis GRADE 4: number of animals", "setting": "fat ZDF rats; rat, in vivo", "value": 1},
      {"measurement": "Dilatation: pelvis MEAN SEVERITY", "setting": "fat ZDF rats; rat, in vivo", "value": 3.0},
      {"measurement": "Relaxation of aortic rings by acetylcholine", "setting": "[1]; ACh 10^−5 mol/L after phenylephrine 10^−7 mol/L", "value": "80.89 ± 6.82", "unit": "%"},
      {"measurement": "Relaxation of aortic rings by acetylcholine", "setting": "[1]; ACh 10^−6 mol/L after phenylephrine 10^−7 mol/L", "value": "76.4 ± 6.38", "unit": "%"},
      {"measurement": "Relaxation of aortic rings by acetylcholine", "setting": "[1]; ACh 10^−7 mol/L after phenylephrine 10^−7 mol/L", "value": "59.62 ± 6.43", "unit": "%"},
      {"measurement": "Relaxation of aortic rings by acetylcholine", "setting": "[1]; ACh 10^−8 mol/L after phenylephrine 10^−7 mol/L", "value": "19.9 ± 3.48", "unit": "%"},
      {"measurement": "Endothelial dysfunction and atherogenic changes in the blood vessels", "setting": "[1]; atherogenic rabbit model, in words", "value": "both prevented and reversed"},
      {"measurement": "AGE-subtype CEL in the kidneys (anti-CEL), mean", "setting": "ZDF rats; [6]", "value": 50.24, "unit": "rf * 10^5"},
      {"measurement": "AGE-subtype CML in the kidneys (anti-CML 011), mean", "setting": "ZDF rats; [6]", "value": 32.62, "unit": "rf * 10^5"},
      {"measurement": "AGE-subtype pentosidine in the kidneys (anti-pentosidine 012), mean", "setting": "ZDF rats; [6]", "value": 44.99, "unit": "rf * 10^5"},
      {"measurement": "Kidney AGE (Nε-(carboxymethyl)lysine or CML) values", "setting": "ZDF rats; diabetic rats, summary in words", "value": "normalizes"},
      {"measurement": "AGE values for subtype CEL compared to untreated ZDF rats", "setting": "ZDF rats; kidney, dot blot, in words", "value": "significantly less"},
      {"measurement": "AGE values for subtype CML compared to untreated ZDF rats", "setting": "ZDF rats; kidney, dot blot, in words", "value": "significantly less"},
      {"measurement": "AGE values for subtype pentosidine compared to untreated ZDF rats", "setting": "ZDF rats; kidney, dot blot, in words", "value": "significantly less"},
      {"measurement": "Urine excretion Albumin", "setting": "[2]; week 0 of treatment", "value": 0.27, "unit": "mg/kg/h"},
      {"measurement": "Urine excretion Albumin/Creatinine", "setting": "[2]; week 0 of treatment", "value": 48.56, "unit": "mg/mmol"},
      {"measurement": "Urine excretion Albumin", "setting": "[2]; week 7 of treatment", "value": 0.09, "unit": "mg/kg/h"},
      {"measurement": "Urine excretion Albumin/Creatinine", "setting": "[2]; week 7 of treatment", "value": 14.30, "unit": "mg/mmol"},
      {"measurement": "Urine excretion Albumin", "setting": "[2]; week 17 of treatment", "value": 0.41, "unit": "mg/kg/h"},
      {"measurement": "Urine excretion Albumin/Creatinine", "setting": "[2]; week 17 of treatment", "value": 44.63, "unit": "mg/mmol"},
      {"measurement": "Urine excretion Albumin", "setting": "[2]; week 27 of treatment", "value": 1.39, "unit": "mg/kg/h"},
      {"measurement": "Urine excretion Albumin/Creatinine", "setting": "[2]; week 27 of treatment", "value": 152.71, "unit": "mg/mmol"},
      {"measurement": "Effect relative to the ACE inhibitor ramipril", "setting": "[2]; nephroprotective effect, compared with ramipril", "value": "6-8 fold"},
      {"measurement": "NO", "setting": "endothelial cells", "value": "329.19 ± 30.10", "unit": "nM"},
      {"measurement": "O2^− (superoxide)", "setting": "endothelial cells", "value": "30.18 ± 6.00", "unit": "nM"}
    ]}
  ]
}
